Measured values reported in article PMC6934184, “Selective DNA-PKcs inhibition extends the therapeutic index of localized radiotherapy and chemotherapy” (The Journal of Clinical Investigation, 2019).

Target: T1, ADRBK2 (GRK3) (Homo sapiens, UniProt P35626)
T1 construct: purchased Thermo Fisher Scientific (Life Technologies) SelectScreen
Assay: SelectScreen Z'LYTE
Assay type: biochemical
Method in brief: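 SelectScreen broad panel; activity (Z'LYTE, Adapta) plus binding formats. ATP: Km app for CSF1R Z'LYTE; 10 for CAMK1 Adapta. Readout = % per kinase.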

T1 sequence (P35626 whole entry): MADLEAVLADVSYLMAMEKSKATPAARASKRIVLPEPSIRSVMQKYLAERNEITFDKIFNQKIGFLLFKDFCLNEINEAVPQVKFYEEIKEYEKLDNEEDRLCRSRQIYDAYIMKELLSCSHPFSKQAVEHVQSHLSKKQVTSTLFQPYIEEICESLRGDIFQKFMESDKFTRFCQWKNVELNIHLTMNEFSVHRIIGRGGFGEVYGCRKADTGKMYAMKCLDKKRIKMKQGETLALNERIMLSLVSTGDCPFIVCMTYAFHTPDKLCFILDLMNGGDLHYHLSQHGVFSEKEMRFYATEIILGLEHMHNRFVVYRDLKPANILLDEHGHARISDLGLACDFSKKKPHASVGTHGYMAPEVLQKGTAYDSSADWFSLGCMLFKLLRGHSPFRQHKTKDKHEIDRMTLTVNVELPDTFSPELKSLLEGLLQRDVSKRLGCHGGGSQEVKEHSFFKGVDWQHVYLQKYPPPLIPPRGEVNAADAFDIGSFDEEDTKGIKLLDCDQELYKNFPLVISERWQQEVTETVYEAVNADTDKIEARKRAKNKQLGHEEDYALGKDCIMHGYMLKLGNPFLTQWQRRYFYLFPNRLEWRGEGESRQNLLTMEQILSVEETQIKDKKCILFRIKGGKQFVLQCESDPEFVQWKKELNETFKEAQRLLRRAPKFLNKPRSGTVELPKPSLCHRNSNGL

## CN(C(=O)CN1CCOCC1)c1ccc2sc3c(-c4cccc5c(=O)cc(N6CC7CCC(C6)O7)oc45)cccc3c2c1 [NU5455]
  inhibition at 1 µM: 2.8%
